Experimental data from patent publication US11179363B2, “Non-steroidal selective glucocorticoid receptor agonistic modulators (SEGRAMs) and uses thereof” (ASSOCIATION POUR LA RECHERCHE À L'IGBMC (ARI), priority 2017, dated 2021).

How the values were obtained:
GR = target: T1, GR (Homo sapiens, UniProt P04150); conditions: cited from earlier work
T1 sequence (P04150 1-777): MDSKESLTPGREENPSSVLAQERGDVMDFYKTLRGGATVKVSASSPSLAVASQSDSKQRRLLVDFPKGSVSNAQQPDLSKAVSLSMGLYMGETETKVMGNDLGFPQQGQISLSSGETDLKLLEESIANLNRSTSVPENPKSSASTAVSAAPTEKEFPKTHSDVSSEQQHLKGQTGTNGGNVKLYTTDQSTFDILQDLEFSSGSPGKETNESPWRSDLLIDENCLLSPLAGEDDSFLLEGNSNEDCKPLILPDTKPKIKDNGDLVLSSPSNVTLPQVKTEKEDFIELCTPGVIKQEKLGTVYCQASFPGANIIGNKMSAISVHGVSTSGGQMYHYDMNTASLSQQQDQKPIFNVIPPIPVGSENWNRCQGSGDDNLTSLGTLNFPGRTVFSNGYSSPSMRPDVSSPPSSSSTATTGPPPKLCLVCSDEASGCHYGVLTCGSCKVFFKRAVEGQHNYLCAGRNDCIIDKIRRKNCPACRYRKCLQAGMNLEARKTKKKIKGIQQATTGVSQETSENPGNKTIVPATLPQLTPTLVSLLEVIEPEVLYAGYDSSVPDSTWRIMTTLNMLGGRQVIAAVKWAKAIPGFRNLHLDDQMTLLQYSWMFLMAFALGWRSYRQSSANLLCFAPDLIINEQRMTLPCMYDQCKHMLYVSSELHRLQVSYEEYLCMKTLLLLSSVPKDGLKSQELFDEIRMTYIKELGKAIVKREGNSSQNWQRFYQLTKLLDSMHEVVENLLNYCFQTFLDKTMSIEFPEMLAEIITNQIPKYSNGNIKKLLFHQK

[1] = target: T2, glucocorticoid receptor (GR) (Mus musculus, UniProt P06537); assay: In vivo transcriptional analysis (q-RT-PCR) of the three GR functions in mouse ears; parameters: species or system Balb/C mice; conditions: topical 18 hours
T2 construct: RNA transcripts were then extracted from mouse ears; from tissue; host or cells: ear skin of Balb/C mice (in vivo topical treatment)
T2 sequence (P06537 1-792): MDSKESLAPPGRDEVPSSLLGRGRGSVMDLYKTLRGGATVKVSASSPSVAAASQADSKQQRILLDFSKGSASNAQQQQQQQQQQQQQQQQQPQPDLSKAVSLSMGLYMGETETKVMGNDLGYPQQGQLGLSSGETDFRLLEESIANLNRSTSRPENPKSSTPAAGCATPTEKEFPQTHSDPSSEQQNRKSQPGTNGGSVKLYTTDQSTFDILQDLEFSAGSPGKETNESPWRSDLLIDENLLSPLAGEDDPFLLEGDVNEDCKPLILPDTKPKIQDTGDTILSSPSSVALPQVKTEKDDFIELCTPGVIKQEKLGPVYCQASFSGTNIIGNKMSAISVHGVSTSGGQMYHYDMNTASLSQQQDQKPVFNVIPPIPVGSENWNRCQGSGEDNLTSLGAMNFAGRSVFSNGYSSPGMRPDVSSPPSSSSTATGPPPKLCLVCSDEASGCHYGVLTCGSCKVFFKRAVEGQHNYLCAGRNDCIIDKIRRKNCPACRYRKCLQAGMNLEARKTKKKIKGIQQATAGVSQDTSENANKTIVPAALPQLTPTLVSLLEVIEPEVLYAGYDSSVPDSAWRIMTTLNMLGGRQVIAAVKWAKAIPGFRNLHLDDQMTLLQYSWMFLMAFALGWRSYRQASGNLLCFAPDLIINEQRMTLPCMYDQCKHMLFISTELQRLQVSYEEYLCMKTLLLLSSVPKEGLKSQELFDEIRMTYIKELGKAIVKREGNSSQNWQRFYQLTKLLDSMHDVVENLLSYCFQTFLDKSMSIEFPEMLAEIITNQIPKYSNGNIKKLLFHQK
Procedure: RNA transcripts were then extracted from mouse ears and the transcripts of 4 genes were analyzed by q-RT-PCR: • (i) the directly GR-transactivated gene of the mTOR inhibitor REDD1, • (ii) the GR-directly transrepressed gene of keratin 5 (K5) and • (iii) the GR-indirectly “tethered” transrepressed genes of interleukin-1β (IL-1β) and interleukin-6 (IL-6), both being activated in presence of 12-O-tetradecanoylphorbol-13-acetate (TPA). Results

[2] = system: Aldara-induced psoriasis-like skin inflammation; assay: Aldara-induced psoriasis-like skin inflammation of mouse ears; type: in vivo, Balb/C mouse; conditions: for Aldara-induced psoriasis-like skin inflammation, histological analyses: H&E staining; for induced expression of the Th17 cytokines IL-17a, IL-17c, IL-17f and IL-22: ear extracts, q-RT-PCR, D10; for Aldara-induced psoriasis-like skin inflammation: topical 1 nmole/cm^2, last 5 days of 9 days Aldara
Procedure: Balb/C mouse ears were topically treated with Aldara® to induce a psoriasis-like skin inflammation ([…] et al., 2015. Br J Dermatol. 172(2):345-53). Mice were treated for 9 days with Aldara®, including a co-topical treatment for the last 5 days with either ethanol (Vehicle), Dex, CpdX or CpdX-D3. At D10, RNA transcripts were extracted from mouse ears and IL-17a, IL-17c, IL-17f and IL-22 transcripts were analyzed by q-RT-PCR. Ear skin samples were also harvested for histological analyses (with H&E staining).

[3] = system: OVA-induced asthma-like allergic lung inflammation; assay: Ovalbumin (OVA)-induced asthma-like allergic lung inflammation; type: in vivo, mice; conditions: OVA model
Procedure: Glucocorticoids have been (Pearlman et al., 1997. Ann Allergy Asthma Immunol. 78(4):356-62), and are still, widely used in asthma therapy. In order to investigate the possible CpdX anti-inflammatory activity in vivo, mice were sensitized and challenged with either ovalbumin (OVA) or house dust mite (HDM) to induce an asthma-like allergic lung inflammation.
Mice were intraperitoneally sensitized with either 50 μg OVA together with alum or with alum alone on D0, D7 and D14. Mice were then subdivided into three groups, and on D19, D20 and D21, they were intranasally (i.n.) challenged with 10 μg OVA. The first and the second group received intranasally 0.5 mg/kg of body weight of Dex or CpdX respectively, while the third group served as a control.
On D22, the lung allergic inflammation was assessed for each mouse by examination of the bronchoalveolar lavage fluid (BAL). The total BAL cells, eosinophils, neutrophils, macrophages and lymphocytes were counted. RNA transcripts were extracted from lung samples and RNA transcripts of IL-1β, IL-6, IL-4, IL-5, IL-10, IL-13, Eotaxin, CCL4 and TNFα were analyzed by q-RT-PCR. Histological (with H&E staining) and immunohistochemical (with eosinophil-specific and neutrophil-specific antibodies) analyses of lung tissues were also carried out.

Structure (SMILES)	indirect tethered transrepression activity of the GR (GR)	transactivation and direct transrepression functions of the GR (GR)	GR functions induced (direct transactivation, direct transrepression, indirect tethered transrepression) ([1]; 1 nmole/cm^2)	K5 gene relative RNA expression (GR direct transrepression) ([1]; 1 nmole/cm^2, vs Vehicle)	REDD1 gene relative RNA expression (GR direct transactivation) ([1]; 1 nmole/cm^2, vs Vehicle)	Aldara-induced psoriasis-like skin inflammation, histological analyses [2]	induced expression of the Th17 cytokines IL-17a, IL-17c, IL-17f and IL-22 [2]	Aldara-induced psoriasis-like skin inflammation [2]	eosinophils and neutrophils in lung (immunohistochemistry) ([3]; data not shown)	number of macrophages in BAL ([3]; intranasal 0.5 mg/kg, D22)	total number of BAL cells, eosinophils, neutrophils and lymphocytes ([3]; intranasal 0.5 mg/kg, D22, vs control group)	peribronchiolar and perivascular inflammatory cell infiltration (histology) ([3]; lung paraffin sections)	lung expression of IL-1β, IL-6, IL-4, IL-5, IL-10, IL-13, Eotaxin, CCL4 and TNFα ([3]; q-RT-PCR)
COc1ccc(F)cc1C(C)(C)CC(O)(CNc1ccc2c(c1)COC2=O)C(F)(F)F (racemic) [CpdX, 5-[4-(5-fluoro-2-methoxyphenyl)-2-hydroxy-4-methyl-2-(trifluoromethyl)pentylamino]-isobenzofuran-1(3H)-one]	still inducing	does not induce	selectively exhibits an indirect tethered transrepression activity	unchanged	unchanged	could reduce	similarly reduced	significantly decreased	similarly decreased	unchanged	significantly decreased	strongly decreased	significantly and similarly decreased
[2H]C([2H])([2H])Oc1ccc(F)cc1C(C)(C)CC(O)(CNc1ccc2c(c1)COC2=O)C(F)(F)F (racemic) [CpdX-D3, 5-{4-[2-(methoxy-D3)-5-fluorophenyl]-2-hydroxy-4-methyl-2-(trifluoromethyl)pentylamino}isobenzofuran-1(3H)-one]						could reduce	similarly reduced	significantly decreased					
